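Growth conditions: 96-well plates. Treatment: test compound, 48 hours, 5 concentrations. Analysis: linear interpolation between bracketing concentrations; unreached endpoints set to highest concentration. At the GI50, growth is halved.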 Calls of active or inactive are those of the source. Cut-off read from the data, not from the text of the source: active = GI50 up to about 1.1 µM and inactive = higher. Numbered stars: 1 amine (or outer) side, 2 acyl side, 3 side chain; on linkers, the order of the positions; unused ones are H or OH. Bridge positions count the residues as written; N and C are the ends. Square brackets hold non-standard residues; d marks the D form. Peptide text beside a SMILES is read from it. I, II: the chains in the order shown. Actinocin(9to1) = Cc1c2oc3c(C)ccc(C(=O)[*:1])c3nc-2c(C(=O)[*:2])c(N)c1=O; X48 = O=C1CC(C(=O)[*:2])N([*:1])C1; NMeV = CN[CH](C(=O)O)C(C)C; Sar = CNCC(=O)O
Assays:
Experiment in all cases: DTP human tumour cell line panel, 48 h
[1] = tested on: UACC-257
[2] = tested on: SNB-19
[3] = tested on: PC-3
[4] = tested on: NCI/ADR-RES
[5] = tested on: MDA-MB-231
[6] = tested on: RXF 393
[7] = tested on: MDA-MB-435
[8] = tested on: MCF7
[9] = tested on: T47D
[10] = tested on: SN12C
[11] = tested on: EKVX
[12] = tested on: HT-29
[13] = tested on: A549
[14] = tested on: SK-MEL-2
[15] = tested on: LOX IMVI
[16] = tested on: 786-0
[17] = tested on: Hs-578T
[18] = tested on: MDA-N

Row | SMILES | GI50 [1] | GI50 [2] | GI50 [3] | GI50 [4] | GI50 [5] | GI50 [6] | GI50 [7] | GI50 [8] | GI50 [9] | GI50 [10] | GI50 [11] | GI50 [12] | GI50 [13] | GI50 [14] | GI50 [15] | GI50 [16] | GI50 [17] | GI50 [18]
1 | O=C1NCN(c2ccccc2)C12CCN(CCc1ccc3[nH]c(=S)[nH]c3c1)CC2 | 0.075 µM (active) | 43.5 µM (inactive) | 24.3 µM (inactive) | > 100 µM (inactive) | 19.5 µM (inactive) | 13 µM (inactive) | 17.3 µM (inactive) | 28.5 µM (inactive) | 16.4 µM (inactive) | 36.1 µM (inactive) | 88.5 µM (inactive) | 29.3 µM (inactive) | 66.5 µM (inactive) | 20.7 µM (inactive) | 18.5 µM (inactive) | 33.5 µM (inactive) | > 100 µM (inactive) | –
2 | Cc1c2oc3c(C)ccc(C(=O)NC4C(=O)NC(C(C)C)C(=O)N5CC(=O)CC5C(=O)N(C)CC(=O)N(C)C(C(C)C)C(=O)OC4C)c3nc-2c(C(=O)NC2C(=O)NC(C(C)C)C(=O)N3CC(=O)CC3C(=O)N(C)CC(=O)N(C)C(C(C)C)C(=O)OC2C)c(N)c1=O (stereo unspecified) (I: TV[X48][Sar][NMeV] / II: TV[X48][Sar][NMeV]; ester I:1-I:C, II:1-II:C; linker I:N-II:N via Actinocin(9to1); configuration not given here) | > 1 µM (active) | > 1 µM (active) | > 1 µM (active) | > 1 µM (active) | > 1 µM (active) | 0.476 µM (active) | > 1 µM (active) | 0.0277 µM (active) | > 1 µM (active) | > 1 µM (active) | > 1 µM (active) | > 1 µM (active) | 0.253 µM (active) | > 1 µM (active) | > 1 µM (active) | > 1 µM (active) | – | > 1 µM (active)
3 | CCN(CC)C(=O)Cn1c2c(c3ccccc31)CCCC2 | > 100 µM (inactive) | > 100 µM (inactive) | 68.5 µM (inactive) | 66.4 µM (inactive) | – | – | 91.4 µM (inactive) | > 100 µM (inactive) | – | > 100 µM (inactive) | > 100 µM (inactive) | > 100 µM (inactive) | 61.8 µM (inactive) | > 100 µM (inactive) | > 100 µM (inactive) | > 100 µM (inactive) | 24.5 µM (inactive) | 77.8 µM (inactive)
4 | Cc1ccccc1[P+](C)(c1ccccc1C)c1ccccc1C | 2.58 µM (inactive) | 8.69 µM (inactive) | 14.3 µM (inactive) | 25.5 µM (inactive) | 12.6 µM (inactive) | 36.9 µM (inactive) | 4.54 µM (inactive) | 14 µM (inactive) | 3.06 µM (inactive) | 14.7 µM (inactive) | 5.07 µM (inactive) | 5.85 µM (inactive) | 13.1 µM (inactive) | 13.4 µM (inactive) | 14.1 µM (inactive) | 24.8 µM (inactive) | 17.8 µM (inactive) | –
5 | COc1ccc([C@H]2[C@H](C)C3=Nc4ccccc4CN32)cc1 | > 100 µM (inactive) | > 100 µM (inactive) | > 100 µM (inactive) | > 100 µM (inactive) | > 100 µM (inactive) | > 100 µM (inactive) | 31.4 µM (inactive) | 59.7 µM (inactive) | – | 63 µM (inactive) | 96.8 µM (inactive) | 35.8 µM (inactive) | 55.1 µM (inactive) | > 100 µM (inactive) | 39.8 µM (inactive) | 54.1 µM (inactive) | > 100 µM (inactive) | 20.7 µM (inactive)
6 | Nc1cccc2c1-c1c(cccc1[N+](=O)[O-])C2=O | > 100 µM (inactive) | > 100 µM (inactive) | – | – | – | > 100 µM (inactive) | – | – | – | > 100 µM (inactive) | > 100 µM (inactive) | > 100 µM (inactive) | > 100 µM (inactive) | – | > 100 µM (inactive) | > 100 µM (inactive) | – | –
7 | O=c1oc(-c2ccccc2)c(-c2ccccc2)n1-c1ccc(Br)cc1 | 86.9 µM (inactive) | 31.8 µM (inactive) | > 100 µM (inactive) | – | 27.7 µM (inactive) | 36.3 µM (inactive) | > 100 µM (inactive) | > 100 µM (inactive) | 29.4 µM (inactive) | 71.3 µM (inactive) | 54.1 µM (inactive) | > 100 µM (inactive) | 54.5 µM (inactive) | > 100 µM (inactive) | 32.4 µM (inactive) | 32.4 µM (inactive) | 32.3 µM (inactive) | –
8 | Cc1nc2ccc(S(=O)(=O)Nc3ccc(Cl)cc3)cc2c(=O)n1NC(=O)CNc1ccc(Cl)cc1 | > 100 µM (inactive) | > 100 µM (inactive) | > 100 µM (inactive) | > 100 µM (inactive) | > 100 µM (inactive) | – | > 100 µM (inactive) | > 100 µM (inactive) | – | > 100 µM (inactive) | > 100 µM (inactive) | > 100 µM (inactive) | > 100 µM (inactive) | > 100 µM (inactive) | > 100 µM (inactive) | > 100 µM (inactive) | > 100 µM (inactive) | > 100 µM (inactive)
9 | CC(=O)C1=CN=C2C(=O)N(c3ccccc3)N(C)C12C (stereo unspecified) | > 100 µM (inactive) | > 100 µM (inactive) | > 100 µM (inactive) | 55.1 µM (inactive) | > 100 µM (inactive) | > 100 µM (inactive) | > 100 µM (inactive) | > 100 µM (inactive) | – | > 100 µM (inactive) | > 100 µM (inactive) | – | > 100 µM (inactive) | > 100 µM (inactive) | > 100 µM (inactive) | > 100 µM (inactive) | – | > 100 µM (inactive)
10 | Cc1nc2c(O)cc3c4c([nH]c3c2nc1C)C(=O)CCC4 | 95.1 µM (inactive) | 9.42 µM (inactive) | 3.61 µM (inactive) | 34.6 µM (inactive) | 7.45 µM (inactive) | 0.162 µM (active) | 0.541 µM (active) | 0.875 µM (active) | – | 4.49 µM (inactive) | 6.37 µM (inactive) | 1.52 µM (inactive) | 2.4 µM (inactive) | 2.59 µM (inactive) | 2.29 µM (inactive) | 5.85 µM (inactive) | 2.62 µM (inactive) | 0.869 µM (active)
11 | CC(=O)/N=C1\NC(=O)/C(=C/c2ccccc2Cl)N1C | > 100 µM (inactive) | > 100 µM (inactive) | > 100 µM (inactive) | 43.2 µM (inactive) | > 100 µM (inactive) | > 100 µM (inactive) | > 100 µM (inactive) | > 100 µM (inactive) | – | > 100 µM (inactive) | 26.4 µM (inactive) | > 100 µM (inactive) | > 100 µM (inactive) | > 100 µM (inactive) | > 100 µM (inactive) | > 100 µM (inactive) | > 100 µM (inactive) | > 100 µM (inactive)
12 | COc1cnc2oc3ccc(O)cc3c2c1-c1ccccc1 | 88.5 µM (inactive) | – | > 100 µM (inactive) | 30.3 µM (inactive) | – | > 100 µM (inactive) | > 100 µM (inactive) | 39.7 µM (inactive) | 3.65 µM (inactive) | > 100 µM (inactive) | > 100 µM (inactive) | 85.1 µM (inactive) | > 100 µM (inactive) | > 100 µM (inactive) | > 100 µM (inactive) | 21.9 µM (inactive) | > 100 µM (inactive) | –
13 | CC(=O)c1ccc(-c2oc(-c3ccccc3)cc2-c2ccc3c(c2)OCO3)s1 | > 100 µM (inactive) | – | – | 49.7 µM (inactive) | – | > 100 µM (inactive) | 3.07 µM (inactive) | 59 µM (inactive) | 17 µM (inactive) | > 100 µM (inactive) | > 100 µM (inactive) | > 100 µM (inactive) | – | – | – | > 100 µM (inactive) | > 100 µM (inactive) | –
14 | COC(=O)C[C@@H]1C(C)(C)[C@@H]2O[C@@]34C[C@@H]2C(=O)[C@]1(C)[C@H]3CC[C@@]1(C)[C@H](c2ccoc2)OC(=O)C[C@]14O | > 100 µM (inactive) | 71.6 µM (inactive) | > 100 µM (inactive) | > 100 µM (inactive) | > 100 µM (inactive) | – | > 100 µM (inactive) | > 100 µM (inactive) | > 100 µM (inactive) | > 100 µM (inactive) | > 100 µM (inactive) | > 100 µM (inactive) | > 100 µM (inactive) | > 100 µM (inactive) | > 100 µM (inactive) | > 100 µM (inactive) | – | > 100 µM (inactive)
15 | Nc1nc(Cl)cc(OCC2(CO)CCCC2)n1 | > 100 µM (inactive) | > 100 µM (inactive) | > 100 µM (inactive) | > 100 µM (inactive) | – | 79.8 µM (inactive) | > 100 µM (inactive) | > 100 µM (inactive) | – | > 100 µM (inactive) | 91.4 µM (inactive) | > 100 µM (inactive) | > 100 µM (inactive) | – | > 100 µM (inactive) | > 100 µM (inactive) | > 100 µM (inactive) | > 100 µM (inactive)
16 | O=C(NCCn1ccnn1)Nc1ccccc1 | > 100 µM (inactive) | > 100 µM (inactive) | > 100 µM (inactive) | > 100 µM (inactive) | > 100 µM (inactive) | – | > 100 µM (inactive) | > 100 µM (inactive) | – | > 100 µM (inactive) | > 100 µM (inactive) | > 100 µM (inactive) | > 100 µM (inactive) | > 100 µM (inactive) | > 100 µM (inactive) | > 100 µM (inactive) | – | –
17 | CCOC(=O)/C=C1/Nc2cc(F)c(F)cc2NC1=O | > 100 µM (inactive) | > 100 µM (inactive) | > 100 µM (inactive) | > 100 µM (inactive) | > 100 µM (inactive) | > 100 µM (inactive) | > 100 µM (inactive) | > 100 µM (inactive) | – | > 100 µM (inactive) | > 100 µM (inactive) | > 100 µM (inactive) | > 100 µM (inactive) | > 100 µM (inactive) | > 100 µM (inactive) | > 100 µM (inactive) | > 100 µM (inactive) | > 100 µM (inactive)

Reference: ChEMBL document CHEMBL1201862, “PubChem BioAssay data set” (2004)
